Assay results: ChEMBL document CHEMBL1201862, “PubChem BioAssay data set” (2004)
Calls of active or inactive are those of the source.

Legend:
[1] = protection from phage-mediated lysis, alamar blue read-out – E. coli UTI89, K1F phage, bacterial capsule biogenesis inhibitors (AID 488966); format: functional
cells = format: functional
[2] = BJeHLT cell viability loss – BJeHLT cells, dry powder, counter-screen for Ras selective lethality project, dose response (AID 493052); format: functional, cell-based; settings: Homo sapiens
[3] = DRD BJ cell killing, Ras synthetic lethality – DRD BJ fibroblasts, HRASV12, dry powder, dose response (AID 493049); format: functional, cell-based
[4] = HRAS-V12 fibroblast viability reduction – cell-based, Alamar Blue, dry powder, Ras selective lethality project, primary screen (AID 493045); format: functional; settings: BJeLR
[5] = BJeH cell viability loss – BJeH cells, dry powder, counter-screen for Ras selective lethality project, dose response (AID 493054); format: functional, cell-based
[6] = target: Scavenger receptor class B member 1 (Mus musculus, UniProt Q61009); assay: mouse SR-BI DiI-HDL uptake blockers – ldlA[mSR-BI] cells, fluorescence, cherry pick, dose response (AID 493194); format: functional, cell-based;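 also: cellular uptake of fluorescent DiI-labeled HDL measured as cell fluorescence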
Sequence of Scavenger receptor class B member 1 (Q61009 whole entry): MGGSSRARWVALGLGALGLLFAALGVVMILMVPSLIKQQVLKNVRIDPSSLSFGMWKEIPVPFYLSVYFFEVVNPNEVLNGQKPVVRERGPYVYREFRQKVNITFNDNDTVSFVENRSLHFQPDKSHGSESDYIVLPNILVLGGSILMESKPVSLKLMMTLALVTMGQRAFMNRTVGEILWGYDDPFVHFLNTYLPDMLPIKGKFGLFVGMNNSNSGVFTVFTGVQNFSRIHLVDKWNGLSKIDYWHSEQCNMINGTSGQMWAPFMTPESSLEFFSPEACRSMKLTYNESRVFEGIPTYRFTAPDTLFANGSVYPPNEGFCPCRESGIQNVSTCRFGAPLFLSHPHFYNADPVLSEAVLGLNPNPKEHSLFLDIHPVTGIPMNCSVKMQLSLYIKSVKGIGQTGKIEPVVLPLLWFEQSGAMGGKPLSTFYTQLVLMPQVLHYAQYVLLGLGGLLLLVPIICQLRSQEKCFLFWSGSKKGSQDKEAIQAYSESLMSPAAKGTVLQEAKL

[7] = target: Glucose-6-phosphate 1-dehydrogenase (Homo sapiens, UniProt P11413); assay: inhibition of Homo sapiens G6PD, dose series – biochemical, fluorescence, selectivity assay for P. falciparum G6PD inhibitor project, dose response (AID 504792); format: functional
[8] = ADP-Glo luciferase signal interference – biochemical, luminescence, cherry-picked samples, set 2, artefact control for CDK5 inhibitor project, dose response (AID 504546); format: functional, cell-based
[9] = target: Cyclin-dependent kinase 5/CDK5 activator 1 (Homo sapiens, UniProt Q00535); assay: blockade of human CDK5 activity – biochemical, cherry-picked samples, set 2, dose response (AID 504545)
Sequence of Cyclin-dependent kinase 5/CDK5 activator 1 (Q00535 whole entry): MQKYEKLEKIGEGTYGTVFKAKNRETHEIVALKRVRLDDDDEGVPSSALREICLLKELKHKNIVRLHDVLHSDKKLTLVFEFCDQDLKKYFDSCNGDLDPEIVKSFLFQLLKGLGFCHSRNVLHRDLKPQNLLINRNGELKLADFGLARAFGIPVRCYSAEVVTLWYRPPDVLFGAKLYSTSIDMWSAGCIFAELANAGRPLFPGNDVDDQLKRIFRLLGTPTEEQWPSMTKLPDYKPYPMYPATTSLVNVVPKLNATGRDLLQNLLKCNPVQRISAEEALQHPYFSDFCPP
Sequence of Cyclin-dependent kinase 5/CDK5 activator 1 (Q15078 whole entry, further chain): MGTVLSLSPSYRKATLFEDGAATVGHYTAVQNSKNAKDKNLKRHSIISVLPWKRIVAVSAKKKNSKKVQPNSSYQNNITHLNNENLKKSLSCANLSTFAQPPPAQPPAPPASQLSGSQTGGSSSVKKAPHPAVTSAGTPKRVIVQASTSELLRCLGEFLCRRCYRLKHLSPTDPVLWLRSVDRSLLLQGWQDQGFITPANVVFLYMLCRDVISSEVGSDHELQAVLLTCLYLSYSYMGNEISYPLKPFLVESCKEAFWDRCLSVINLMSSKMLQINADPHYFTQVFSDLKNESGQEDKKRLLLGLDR

Nonstructural protein 1 = Nonstructural protein 1 (Influenza A virus, UniProt Q194T2); format: functional, Influenza A virus (A/California/07/2009(H1N1))
Sequence of Nonstructural protein 1 (Q194T2 whole entry): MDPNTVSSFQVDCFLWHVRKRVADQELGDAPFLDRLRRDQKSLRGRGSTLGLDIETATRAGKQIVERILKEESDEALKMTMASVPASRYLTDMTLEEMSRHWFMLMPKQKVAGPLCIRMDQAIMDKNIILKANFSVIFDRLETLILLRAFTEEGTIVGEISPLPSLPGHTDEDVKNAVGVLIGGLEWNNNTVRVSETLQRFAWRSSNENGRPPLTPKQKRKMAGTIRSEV

[10] = target: Heat shock protein HSP 90-alpha (Homo sapiens, UniProt P07900); format: functional, organism-based
[11] = Fluorescence-based cell-based high throughput dose response assay for inhibitors of the interaction of nucleotide-binding oligomerization domain containing 2 (NOD2) and the receptor-interacting serine-threonine kinase 2 (RIPK2).; format: functional; settings: Homo sapiens
Beta Lactamase = Beta Lactamase (Pseudomonas aeruginosa, UniProt Q932Y6); assay: BLA reporter interference, concentration series – BLA reporter cells, FRET fluorescence, artefact control for NOD2-RIPK2 interaction inhibitor project, dose response (AID 651552); format: functional, cell-based
Sequence of Beta Lactamase (Q932Y6 whole entry): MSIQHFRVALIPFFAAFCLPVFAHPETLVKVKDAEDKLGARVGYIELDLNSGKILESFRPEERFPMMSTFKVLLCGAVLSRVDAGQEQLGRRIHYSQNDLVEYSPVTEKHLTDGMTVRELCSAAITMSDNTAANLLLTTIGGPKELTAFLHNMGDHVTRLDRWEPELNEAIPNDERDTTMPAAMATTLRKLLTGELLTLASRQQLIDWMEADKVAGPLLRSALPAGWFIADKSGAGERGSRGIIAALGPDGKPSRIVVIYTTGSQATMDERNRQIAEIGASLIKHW

[12] = viability loss in HeLa cells – cytotoxicity control for MgcRacGAP inhibitor project, dose response (AID 624300); format: functional
[13] = target: T1, Rac GTPase-activating protein 1 (Homo sapiens, UniProt Q9H0H5); assay: blockers of MgcRacGAP-driven Rac1 GTP hydrolysis – biochemical, ADP Hunter fluorescence, primary and confirmatory, confirmation (AID 624330); format: functional
T1 sequence (Q9H0H5 whole entry): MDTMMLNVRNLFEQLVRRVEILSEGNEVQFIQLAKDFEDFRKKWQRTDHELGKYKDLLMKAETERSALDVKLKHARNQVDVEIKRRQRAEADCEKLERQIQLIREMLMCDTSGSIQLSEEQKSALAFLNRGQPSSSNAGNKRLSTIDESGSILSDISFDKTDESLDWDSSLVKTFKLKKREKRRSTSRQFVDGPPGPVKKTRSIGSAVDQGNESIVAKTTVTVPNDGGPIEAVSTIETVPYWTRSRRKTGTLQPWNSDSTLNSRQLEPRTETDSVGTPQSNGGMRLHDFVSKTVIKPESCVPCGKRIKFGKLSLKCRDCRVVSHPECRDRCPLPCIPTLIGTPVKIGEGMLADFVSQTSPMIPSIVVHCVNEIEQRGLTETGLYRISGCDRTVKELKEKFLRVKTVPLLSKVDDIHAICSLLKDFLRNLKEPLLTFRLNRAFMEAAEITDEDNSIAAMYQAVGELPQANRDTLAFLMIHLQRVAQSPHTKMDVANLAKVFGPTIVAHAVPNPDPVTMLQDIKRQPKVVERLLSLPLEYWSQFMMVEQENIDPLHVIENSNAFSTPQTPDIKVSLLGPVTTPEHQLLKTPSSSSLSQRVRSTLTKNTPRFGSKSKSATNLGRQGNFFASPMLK

[14] = target: Matrix metalloproteinase-14 (Homo sapiens, UniProt P50281); assay: Dose Response confirmation of uHTS hits for a small molecule inhibitors of MT1-MMP activation in a fluorescence assay set 1.; format: functional
[15] = target: T2, Histone-lysine N-methyltransferase NSD2 (Homo sapiens, UniProt O96028); format: biochemical
T2 sequence (O96028 whole entry): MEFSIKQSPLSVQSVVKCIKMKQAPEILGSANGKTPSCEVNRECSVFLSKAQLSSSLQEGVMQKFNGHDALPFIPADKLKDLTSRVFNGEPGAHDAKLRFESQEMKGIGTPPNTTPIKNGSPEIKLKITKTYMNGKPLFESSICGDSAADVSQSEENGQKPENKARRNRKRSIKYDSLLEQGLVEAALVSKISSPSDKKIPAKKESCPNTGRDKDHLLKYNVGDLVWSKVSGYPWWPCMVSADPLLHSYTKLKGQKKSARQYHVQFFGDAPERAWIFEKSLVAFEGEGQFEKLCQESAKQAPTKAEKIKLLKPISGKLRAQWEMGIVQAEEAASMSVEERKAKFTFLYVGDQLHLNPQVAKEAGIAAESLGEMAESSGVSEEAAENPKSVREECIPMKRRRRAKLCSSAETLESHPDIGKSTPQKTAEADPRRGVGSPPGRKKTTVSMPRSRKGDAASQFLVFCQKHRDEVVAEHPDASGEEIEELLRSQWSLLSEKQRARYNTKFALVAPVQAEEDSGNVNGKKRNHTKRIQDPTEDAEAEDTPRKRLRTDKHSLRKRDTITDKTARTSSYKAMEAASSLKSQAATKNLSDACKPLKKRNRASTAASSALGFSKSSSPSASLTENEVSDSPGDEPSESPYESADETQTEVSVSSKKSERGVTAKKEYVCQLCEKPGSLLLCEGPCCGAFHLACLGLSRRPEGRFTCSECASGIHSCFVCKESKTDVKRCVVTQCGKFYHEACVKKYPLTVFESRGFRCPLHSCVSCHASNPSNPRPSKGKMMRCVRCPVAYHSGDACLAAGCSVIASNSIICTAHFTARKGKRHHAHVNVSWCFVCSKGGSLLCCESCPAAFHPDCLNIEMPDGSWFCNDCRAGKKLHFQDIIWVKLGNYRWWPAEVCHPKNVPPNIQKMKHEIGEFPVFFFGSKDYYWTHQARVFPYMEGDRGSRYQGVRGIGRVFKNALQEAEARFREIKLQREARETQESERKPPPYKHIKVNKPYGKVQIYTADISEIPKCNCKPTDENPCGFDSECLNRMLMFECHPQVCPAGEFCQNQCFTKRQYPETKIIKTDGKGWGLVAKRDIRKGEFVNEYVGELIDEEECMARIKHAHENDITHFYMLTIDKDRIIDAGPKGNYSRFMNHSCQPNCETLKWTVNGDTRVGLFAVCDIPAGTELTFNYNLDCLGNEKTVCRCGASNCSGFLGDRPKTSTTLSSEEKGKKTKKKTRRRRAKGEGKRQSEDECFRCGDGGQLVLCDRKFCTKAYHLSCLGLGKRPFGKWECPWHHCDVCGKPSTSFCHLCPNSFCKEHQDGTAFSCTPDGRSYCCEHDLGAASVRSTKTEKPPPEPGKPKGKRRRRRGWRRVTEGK

[16] = HGIII-sPLA2 enzyme inhibition potency – biochemical, QFRET, IC50, dose response (AID 743457);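 also: green fluorescence rise as the enzyme cleaves BODIPY PC-A2 in liposomes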
Wee1-like protein kinase = Wee1-like protein kinase (Homo sapiens, UniProt P30291); assay: HeLa cell cycle G2/M accumulation – FACS, mechanism study for Wee1 degradation inhibitor project, late-stage follow-up, panel member Wee1 Degradation (AID 2088)
Sequence of Wee1-like protein kinase (P30291 whole entry): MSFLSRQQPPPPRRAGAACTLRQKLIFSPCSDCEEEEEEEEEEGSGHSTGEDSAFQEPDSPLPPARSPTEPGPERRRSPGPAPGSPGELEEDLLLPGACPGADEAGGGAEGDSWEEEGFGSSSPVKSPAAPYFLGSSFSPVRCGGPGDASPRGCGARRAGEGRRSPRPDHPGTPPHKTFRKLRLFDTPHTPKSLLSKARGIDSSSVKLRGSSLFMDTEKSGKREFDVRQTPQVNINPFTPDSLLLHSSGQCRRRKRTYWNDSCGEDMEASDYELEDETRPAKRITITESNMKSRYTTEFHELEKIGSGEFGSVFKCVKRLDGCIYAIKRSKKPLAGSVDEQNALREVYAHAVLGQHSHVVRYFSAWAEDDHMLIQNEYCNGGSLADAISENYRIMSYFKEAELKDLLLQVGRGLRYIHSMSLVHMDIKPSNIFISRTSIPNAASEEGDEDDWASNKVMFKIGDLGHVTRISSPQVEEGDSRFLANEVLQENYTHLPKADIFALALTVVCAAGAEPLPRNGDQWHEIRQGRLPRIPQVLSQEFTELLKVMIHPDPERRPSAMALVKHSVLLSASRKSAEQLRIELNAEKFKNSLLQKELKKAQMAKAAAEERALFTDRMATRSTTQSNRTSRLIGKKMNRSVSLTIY

[17] = target: G2/mitotic-specific cyclin-B1 (Homo sapiens, UniProt P14635); assay: HeLa cell cycle G2/M accumulation – FACS, mechanism study for Wee1 degradation inhibitor project, late-stage follow-up, panel member Cyclin B Degradation (AID 2088)
Sequence of G2/mitotic-specific cyclin-B1 (P14635 whole entry): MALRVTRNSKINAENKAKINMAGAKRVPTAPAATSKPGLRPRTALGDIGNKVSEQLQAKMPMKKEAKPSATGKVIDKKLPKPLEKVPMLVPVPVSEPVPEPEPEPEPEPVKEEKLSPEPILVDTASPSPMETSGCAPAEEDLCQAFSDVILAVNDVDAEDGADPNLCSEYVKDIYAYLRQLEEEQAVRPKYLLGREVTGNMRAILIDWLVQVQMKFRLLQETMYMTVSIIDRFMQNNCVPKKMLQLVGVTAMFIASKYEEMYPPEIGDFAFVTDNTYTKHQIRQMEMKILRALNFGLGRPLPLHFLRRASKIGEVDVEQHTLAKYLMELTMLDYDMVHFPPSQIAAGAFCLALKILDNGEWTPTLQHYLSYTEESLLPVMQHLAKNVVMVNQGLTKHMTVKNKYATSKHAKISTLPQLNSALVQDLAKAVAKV

[18] = luciferase reporter signal suppression in cells – H4 neuroglioma cells, luminescence, dose response (AID 1990); format: functional, cell-based
[19] = Luminescence Cell-Based Dose Response HTS to Identify Inhibitors of 5'UTR Stem-Loop Driven Prion Protein mRNA Translation in H4 Neuroglioblastoma Cells. [Related pubchem assays: 1827 (Project Summary), 1813 (Primary HTS)]; format: functional
[20] = alpha-synuclein stem-loop luciferase translation blockers – H4 neuroglioma cells, luminescence, confirmation (AID 1988); format: functional, cell-based
[21] = HEK-293T cell viability reduction – luminescence, B-cell screen hits, cytotoxicity control for BCR NF-kB inhibitor project, dose response (AID 489021); format: functional, cell-based;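 also: HEK-293T cells carrying an NF-kB luciferase reporter; cells exposed to compound for about 14 hours before viability readout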
[22] = target: T3, Kappa-type opioid receptor (Homo sapiens, UniProt P41145); format: functional
T3 sequence (P41145 whole entry): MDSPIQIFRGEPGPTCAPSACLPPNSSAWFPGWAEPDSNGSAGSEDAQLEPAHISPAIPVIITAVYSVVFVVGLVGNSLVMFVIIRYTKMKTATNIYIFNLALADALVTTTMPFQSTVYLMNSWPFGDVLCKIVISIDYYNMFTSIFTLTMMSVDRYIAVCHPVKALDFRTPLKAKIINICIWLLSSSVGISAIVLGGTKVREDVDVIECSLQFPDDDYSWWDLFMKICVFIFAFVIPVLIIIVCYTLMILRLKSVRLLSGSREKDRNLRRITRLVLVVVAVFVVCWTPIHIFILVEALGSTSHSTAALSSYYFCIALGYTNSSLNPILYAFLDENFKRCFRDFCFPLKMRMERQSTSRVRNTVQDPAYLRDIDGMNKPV

Beta-galactosidase [23] = target: T4, Beta-galactosidase (Escherichia coli, UniProt Q8VNN2); format: functional
T4 sequence (Q8VNN2 whole entry): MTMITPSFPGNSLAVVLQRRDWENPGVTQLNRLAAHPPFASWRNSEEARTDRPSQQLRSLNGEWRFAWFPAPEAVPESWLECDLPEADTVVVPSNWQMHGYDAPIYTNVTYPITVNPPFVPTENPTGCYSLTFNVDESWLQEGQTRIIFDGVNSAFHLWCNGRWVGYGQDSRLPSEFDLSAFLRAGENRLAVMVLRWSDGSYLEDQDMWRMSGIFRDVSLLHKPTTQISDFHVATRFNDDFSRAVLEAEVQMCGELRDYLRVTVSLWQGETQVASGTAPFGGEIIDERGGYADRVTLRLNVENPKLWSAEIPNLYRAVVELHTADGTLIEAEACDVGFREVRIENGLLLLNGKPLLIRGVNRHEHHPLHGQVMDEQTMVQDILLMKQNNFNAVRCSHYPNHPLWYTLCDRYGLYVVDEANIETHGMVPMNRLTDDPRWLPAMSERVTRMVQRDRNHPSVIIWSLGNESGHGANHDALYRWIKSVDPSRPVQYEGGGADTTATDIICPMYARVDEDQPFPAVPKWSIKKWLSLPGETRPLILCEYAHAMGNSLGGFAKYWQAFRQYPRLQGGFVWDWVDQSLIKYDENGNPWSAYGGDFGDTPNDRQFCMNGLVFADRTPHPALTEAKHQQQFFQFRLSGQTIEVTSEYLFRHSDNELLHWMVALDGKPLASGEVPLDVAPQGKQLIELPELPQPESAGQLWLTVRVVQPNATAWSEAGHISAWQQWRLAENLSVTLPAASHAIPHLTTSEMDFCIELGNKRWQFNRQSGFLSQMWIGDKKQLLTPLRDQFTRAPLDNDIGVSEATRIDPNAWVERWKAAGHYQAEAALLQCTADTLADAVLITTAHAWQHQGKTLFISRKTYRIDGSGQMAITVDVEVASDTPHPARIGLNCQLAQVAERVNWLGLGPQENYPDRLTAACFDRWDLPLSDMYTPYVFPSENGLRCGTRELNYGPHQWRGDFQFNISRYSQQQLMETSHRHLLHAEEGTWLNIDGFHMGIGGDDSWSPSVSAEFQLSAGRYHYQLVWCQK

[24] = target: T3, Kappa-type opioid receptor; format: functional; remark: listed apart in the source
Beta-galactosidase [25] = target: T4, Beta-galactosidase; assay: detection-enzyme interference by beta-gal modulators – biochemical, E. coli enzyme, set 3, artefact control for CCR6 antagonist project, dose response (AID 504712); format: functional
[26] = target: T5, Corticotropin-releasing factor receptor 2/Corticotropin-releasing factor-binding protein (Homo sapiens, UniProt P24387+Q13324); assay: activators of CRF receptor 2 with binding protein – uHTS hits, confirmation (AID 602473); format: functional; settings: read-out: EC50_Mean
T5 sequence (Q13324 whole entry): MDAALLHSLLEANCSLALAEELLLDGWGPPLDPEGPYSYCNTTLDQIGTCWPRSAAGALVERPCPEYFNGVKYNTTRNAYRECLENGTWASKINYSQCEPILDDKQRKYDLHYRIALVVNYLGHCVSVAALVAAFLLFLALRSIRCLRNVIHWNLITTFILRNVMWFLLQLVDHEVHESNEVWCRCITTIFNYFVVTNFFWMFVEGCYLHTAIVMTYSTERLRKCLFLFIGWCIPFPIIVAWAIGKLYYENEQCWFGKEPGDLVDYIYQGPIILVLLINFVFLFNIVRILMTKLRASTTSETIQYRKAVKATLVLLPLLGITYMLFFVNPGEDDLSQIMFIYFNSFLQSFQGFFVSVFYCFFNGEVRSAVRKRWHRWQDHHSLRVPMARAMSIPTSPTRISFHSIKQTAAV
T5 sequence (P24387 whole entry): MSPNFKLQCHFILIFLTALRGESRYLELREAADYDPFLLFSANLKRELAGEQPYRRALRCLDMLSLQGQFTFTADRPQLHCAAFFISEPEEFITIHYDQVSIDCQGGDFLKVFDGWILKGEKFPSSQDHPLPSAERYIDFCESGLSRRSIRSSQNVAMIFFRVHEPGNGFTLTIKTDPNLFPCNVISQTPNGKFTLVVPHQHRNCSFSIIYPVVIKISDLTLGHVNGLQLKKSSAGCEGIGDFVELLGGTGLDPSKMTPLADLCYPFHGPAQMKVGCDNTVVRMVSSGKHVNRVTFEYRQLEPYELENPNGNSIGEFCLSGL

Protein Rev = Protein Rev (Human immunodeficiency virus type 1 group M subtype B (isolate HXB2)(HIV-1), UniProt P04618); assay: blockers of HIV Rev/RRE RNA complex – biochemical, fluorescence polarization, HIV-1, dose response (AID 434976); design: species or system Human immunodeficiency virus 1
Sequence of Protein Rev (P04618 whole entry): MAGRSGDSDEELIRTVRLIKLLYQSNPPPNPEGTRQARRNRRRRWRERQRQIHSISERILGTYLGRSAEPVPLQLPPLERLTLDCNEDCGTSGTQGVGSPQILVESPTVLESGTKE

[27] = target: Female germline-specific tumor suppressor gld-1 (Caenorhabditis elegans, UniProt Q17339); assay: blockers of GLD-1/TGE RNA complex formation – biochemical, fluorescence polarization, C. elegans, dose response (AID 2802);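 also: fluorescence polarization of labeled TGE RNA bound by purified gld-1 protein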
Sequence of Female germline-specific tumor suppressor gld-1 (Q17339 whole entry): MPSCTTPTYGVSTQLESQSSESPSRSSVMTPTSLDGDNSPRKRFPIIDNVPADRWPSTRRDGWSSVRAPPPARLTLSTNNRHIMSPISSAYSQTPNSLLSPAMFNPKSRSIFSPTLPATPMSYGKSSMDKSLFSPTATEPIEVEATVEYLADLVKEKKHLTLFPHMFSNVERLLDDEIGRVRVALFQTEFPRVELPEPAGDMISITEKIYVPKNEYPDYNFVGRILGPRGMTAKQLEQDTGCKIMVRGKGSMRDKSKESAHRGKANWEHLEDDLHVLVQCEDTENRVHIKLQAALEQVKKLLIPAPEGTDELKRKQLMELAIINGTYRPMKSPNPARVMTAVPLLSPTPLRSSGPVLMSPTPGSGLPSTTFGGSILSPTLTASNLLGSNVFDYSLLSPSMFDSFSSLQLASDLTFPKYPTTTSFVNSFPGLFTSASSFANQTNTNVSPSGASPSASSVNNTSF

Vero = assay: viability of Vero cells under compound – cytotoxicity control for flavivirus capping enzyme inhibitors (AID 588742); format: functional; settings: Chlorocebus sabaeus
Genome polyprotein = Genome polyprotein (dengue virus type 2, UniProt P29990); assay: flavivirus cap methylation enzyme inhibition – biochemical, confirmation dose response, primary screen (AID 588689); format: functional

SMILES: CCc1ccc(NC(=O)C(=O)NNC(=O)c2cccc(OC)c2)cc1
- IC50 [1]: > 75 µM (active)
- IC50 (cells): 10.5 µM (active)

SMILES: COc1ccc(N(CC(=O)NCCc2ccccc2)C(=O)CCl)cc1Cl
- AC50 [2]: 0.531 µM (active)
- AC50 [3]: 0.223 µM (active)
- AC50 [4]: 0.231 µM (active)
- AC50 [5]: 0.793 µM (active)

SMILES: CCOc1ccc(NS(=O)(=O)c2ccc(C(=O)NNC(=O)c3ccccc3O)cc2)cc1
- AC50 [6]: 11.1 µM (active)

SMILES: CCN(CC)c1ccc(C(=C2C=CC(=[N+](CC)CC)C=C2)c2ccc(N(CC)CC)cc2)cc1
- IC50 [7]: 44.7 µM (inactive)
- AC50 [8]: 31.9 µM (active)
- AC50 [9]: 12.3 µM (active)
- IC50 (Nonstructural protein 1): 0.774 µM (active)
- AC50 [10]: 0.57 µM (active)
- IC50 [11]: 10.9 µM (inactive)
- IC50 (Beta Lactamase): 10.8 µM (inactive)
- CC50 [12]: 4.15 µM (active)
- IC50 [13]: 20.6 µM (active)
- IC50 [14]: > 80 µM (inactive)
- AC50 [15]: 1.01 µM (active)
- IC50 [16]: > 40.6 µM (inactive)

SMILES: Cc1cc(O)nc(-n2nc(C)cc2NC(=O)Cc2ccc(F)cc2)n1
- EC50 (Wee1-like protein kinase): > 49.7 µM (inactive)
- EC50 [17]: > 49.7 µM (inactive)

SMILES: CCCCOc1ccc(NC(=O)C(=O)NCCCn2ccnc2)cc1
- EC50 [18]: 13.9 µM (active)
- EC50 [19]: 18.5 µM (active)
- EC50 [20]: 10.6 µM (active)
- IC50 [21]: > 80 µM (inactive)

SMILES: Cc1ccc(-n2[nH]c(C)c(/C=N/N3C(=O)c4cccc5cccc(c45)C3=O)c2=O)cc1
- IC50 [22]: 6.32 µM (active)
- EC50 (Beta-galactosidase [23]): > 31.5 µM (inactive)
- IC50 [24]: > 32 µM
- IC50 (Beta-galactosidase [25]): > 66.6 µM (inactive)
- EC50 [26]: 3.95 µM (active)

SMILES: CCOc1ccc2nc(N3CCCN(C(=O)Nc4ccccc4C)CC3)c(C#N)cc2c1
- IC50 (Protein Rev): 20.3 µM (not active)
- IC50 [27]: > 59.7 µM (inactive)
- CC50 (Vero): > 40 µM (active)
- IC50 (Genome polyprotein): 38.7 µM (active)
